Drawing on ChEMBL document CHEMBL1649430, “Antimicrobial susceptibility of Mycoplasma pneumoniae isolates and molecular analysis of macrolide-resistant strains from Shanghai, China” (2009), this text covers MIC, MIC50 and MIC90 for 10 compounds.

SMILES strings stand for the structures. Values after ≈ are worked out from the molar mass of the structure shown.

The subject of test [1] is Mycoplasmoides pneumoniae. The test is described as follows: Antimicrobial activity against macrolide-resistant Mycoplasma pneumoniae clinical isolates obtained from bronchial aspirations expressing 23S rRNA A2063G mutant gene and P1 RFLP type I gene by broth microdilution method. Type of test: functional. (In general: Broth dilution looks for growth in wells or tubes with falling amounts of substance.)

Test [2] relates to Mycoplasmoides pneumoniae. As to the kind of experiment: Antimicrobial activity against Mycoplasma pneumoniae ATCC 15531 by broth microdilution method.

Consider `CC[C@H]1OC(=O)[C@H](C)[C@@H](O[C@H]2C[C@@](C)(OC)[C@@H](O)[C@H](C)O2)[C@H](C)[C@@H](O[C@@H]2O[C@H](C)C[C@H](N(C)C)[C@H]2O)[C@](C)(OC)C[C@@H](C)C(=O)[C@H](C)[C@@H](O)[C@]1(C)O` [CLARITHROMYCIN], for which, in test [1], the minimum inhibitory concentration (MIC) (commonly the smallest concentration in the dilution series that meets the test's criterion for growth inhibition) is not above 7 ng/mL; the MIC50 (usually an inhibitory concentration at the 50% level, which refers to growth in some studies and to a panel of isolates in others) turned out to be 128 µg/mL (≈ 171 µM); the MIC90 (usually the lowest concentration that inhibits either 90% of growth or 90% of the strains tested, depending on the study) was more than 128 µg/mL. Besides, the MIC in test [2] was not above 0.007 µg/mL.
The like results for `CO[C@@H]1[C@@H](O[C@@H]2O[C@H](C)[C@@H](O[C@H]3C[C@@](C)(O)[C@@H](OC(=O)CC(C)C)[C@H](C)O3)[C@H](N(C)C)[C@H]2O)[C@@H](CC=O)C[C@@H](C)[C@@H](O)/C=C/C=C/C[C@@H](C)OC(=O)C[C@H]1OC(C)=O` [JOSAMYCIN] were, in that order, not above 7 ng/mL, 2 µg/mL (≈ 2.42 µM), 4 µg/mL (≈ 4.83 µM) and not above 0.007 µg/mL.
In test [1], `CC[C@H]1OC(=O)[C@H](C)[C@@H](O[C@H]2C[C@@](C)(OC)[C@@H](O)[C@H](C)O2)[C@H](C)[C@@H](O[C@@H]2O[C@H](C)C[C@H](N(C)C)[C@H]2O)[C@](C)(O)C[C@@H](C)C(=O)[C@H](C)[C@@H](O)[C@]1(C)O` [ERYTHROMYCIN] had an MIC not above 7 ng/mL, an MIC50 of more than 128 µg/mL and an MIC90 of more than 128 µg/mL. The compound also had a minimal inhibitory concentration (MIC) in test [2] not above 0.007 µg/mL.
In test [1], `C[C@H]1c2cccc(O)c2C(=O)C2=C(O)[C@]3(O)C(=O)C(C(N)=O)=C(O)[C@@H](N(C)C)[C@@H]3[C@@H](O)[C@@H]21.O` [DOXYCYCLINE] came in with an MIC not above 7 ng/mL, an MIC50 of 0.06 µg/mL and an MIC90 of 0.125 µg/mL. This compound came in with an MIC in test [2] of 0.03 µg/mL.
In test [1], `C[C@H]1COc2c(N3CCN(C)CC3)c(F)cc3c(=O)c(C(=O)O)cn1c23.C[C@H]1COc2c(N3CCN(C)CC3)c(F)cc3c(=O)c(C(=O)O)cn1c23.O` [LEVOFLOXACIN] showed an MIC of 15 ng/mL, an MIC50 of 0.25 µg/mL and an MIC90 of 0.5 µg/mL. The compound further showed an MIC in test [2] of 0.25 µg/mL.
In test [1], `CN(C)c1ccc(O)c2c1C[C@H]1C[C@H]3[C@H](N(C)C)C(O)=C(C(N)=O)C(=O)[C@@]3(O)C(O)=C1C2=O` [MINOCYCLINE] showed a minimum inhibitory concentration (MIC) not above 7 ng/mL, an MIC50 of 0.06 µg/mL (≈ 0.131 µM) and an MIC90 of 0.125 µg/mL (≈ 0.273 µM). The compound further had an MIC in test [2] of 0.06 µg/mL (≈ 0.131 µM).
For the compound `CC[C@H]1OC(=O)[C@H](C)[C@@H](O[C@H]2C[C@@](C)(OC)[C@@H](O)[C@H](C)O2)[C@H](C)[C@@H](O[C@@H]2O[C@H](C)C[C@H](N(C)C)[C@H]2O)[C@](C)(O)C[C@@H](C)CN(C)[C@H](C)[C@@H](O)[C@]1(C)O` [AZITHROMYCIN], in test [1], the minimal inhibitory concentration (MIC) was not above 7 ng/mL, the MIC50 came out at 16 µg/mL (≈ 21.4 µM) and the MIC90 amounted to 64 µg/mL (≈ 85.4 µM). The MIC in test [2] is not above 0.007 µg/mL.
The like results for `CN(C)[C@@H]1C(O)=C(C(N)=O)C(=O)[C@@]2(O)C(O)=C3C(=O)c4c(O)cccc4[C@@](C)(O)[C@H]3C[C@@H]12` [TETRACYCLINE] were, in that order, 15 ng/mL (≈ 0.0338 µM), 0.06 µg/mL (≈ 0.135 µM), 0.125 µg/mL (≈ 0.281 µM) and 0.06 µg/mL (≈ 0.135 µM).
In test [2], `COc1c(N2C[C@@H]3CCCN[C@@H]3C2)c(F)cc2c(=O)c(C(=O)O)cn(C3CC3)c12` [MOXIFLOXACIN] yielded an MIC of 0.06 µg/mL (≈ 0.149 µM).
`O=C(O)c1cn(C2CC2)c2cc(N3CCNCC3)c(F)cc2c1=O` [CIPROFLOXACIN] returned an MIC in test [2] of 0.25 µg/mL (≈ 0.754 µM).
